The text below walks through data of patent US10988523B2, “Modified lipidated Relaxin B chain peptides and their therapeutic use” (Sanofi, priority 2018, dated 2021).

The structures appear in SMILES notation. *1 amine or outer side, *2 acyl side, *3 side chain or, on linkers, in order; H or OH if unused. Where a SMILES comes first, the peptide text is derived from it. Side-chain parts run from the residue outwards. [ ]: non-standard residue; d: D form. The star is where a group is joined. X1 = CCCCCCCCCCCCCCCCCC(=O)N[C@@H](CCC(=O)N[C@@H](CCC(=O)N[C@@H](CCC(=O)NCCCC[C@H](NC(=O)COCC(=O)NCCCOCCOCCOCCCNC(=O)COCC(=O)NCCCOCCOCCOCCCN*)C(N)=O)C(=O)O)C(=O)O)C(=O)O; γGlu = O=C(O)[C@H](CCC(=O)[*:2])N[*:1]; Palmitoyl = CCCCCCCCCCCCCCCC(=O)*; αMeK = C[C@](N)(CCCCN)C(=O)O; Nle = CCCC[C@H](N)C(=O)O; AEEA = NCCOCCOCC(=O)O; Aib = CC(C)(N)C(=O)O

One data set deals with T1, RXFP1 (Homo sapiens, UniProt Q9HBX9).
T1 construct: OVCAR5 cells expressing endogenous RXFP1; endogenous in cells; host or cells: OVCAR5 cells
T1 sequence (Q9HBX9 1-757): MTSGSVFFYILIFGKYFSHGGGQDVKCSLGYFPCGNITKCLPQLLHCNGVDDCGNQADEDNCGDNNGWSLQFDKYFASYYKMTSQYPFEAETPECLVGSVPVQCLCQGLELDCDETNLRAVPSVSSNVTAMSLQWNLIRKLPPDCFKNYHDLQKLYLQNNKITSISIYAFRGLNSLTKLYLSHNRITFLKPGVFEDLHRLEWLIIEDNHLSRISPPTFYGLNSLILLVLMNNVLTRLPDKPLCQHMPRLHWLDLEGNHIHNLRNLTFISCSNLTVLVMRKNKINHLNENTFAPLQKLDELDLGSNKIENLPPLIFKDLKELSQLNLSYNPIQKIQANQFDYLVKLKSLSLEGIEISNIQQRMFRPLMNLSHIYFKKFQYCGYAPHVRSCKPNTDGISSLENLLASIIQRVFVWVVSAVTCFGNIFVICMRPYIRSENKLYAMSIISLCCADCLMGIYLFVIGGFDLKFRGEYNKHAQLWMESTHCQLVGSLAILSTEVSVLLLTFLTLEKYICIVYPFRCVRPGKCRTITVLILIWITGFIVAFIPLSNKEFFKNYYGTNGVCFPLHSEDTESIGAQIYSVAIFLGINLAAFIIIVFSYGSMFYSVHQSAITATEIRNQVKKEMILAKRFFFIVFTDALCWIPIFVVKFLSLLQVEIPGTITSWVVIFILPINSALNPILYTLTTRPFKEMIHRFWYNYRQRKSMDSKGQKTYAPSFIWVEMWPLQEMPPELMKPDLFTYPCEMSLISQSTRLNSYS
Put plainly: OVCAR5 cAMP assay (HTRF), RXFP1 agonist activity. Particulars: for EC50: OVCAR5 cells, cAMP HTRF, read-out: EC50 (nM), OVCAR 5 cells (cAMP); for Emax: OVCAR-5, maximal cAMP relative to H2-relaxin maximum (100%), read-out: EMax, OVCAR 5 cells (cAMP). It is filed as cell-based. A digest of the protocol: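 cAMP accumulation readout: after 1 mM IBMX for 40 min, endogenous-RXFP1 OVCAR5 cells got rising peptide concentrations without FCS, 30 min, 37° C, then lysis with HTRF cAMP reagents. Nonlinear regression gave EC50; Emax expressed relative to H2-relaxin maximum, same occasion.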
A general note: Changes in cAMP serve as a functional read-out for many G protein-coupled receptors.

A short description of data set [1]: Stability testing of peptides in human plasma or blood. It is filed as in vitro ADME. Particulars: 37° C.; for Human Plasma stability % remaining T = 0: human plasma or blood, T = 0 (reference), 5 μM. The method, then: (§1) Prior to the testing of stability in plasma (or blood) of a peptide batch, its purity (HPLC-UV) was determined.
(§2) Rat and Human plasma: anti-coagulant sodium or lithium heparin.
(§3) Rat and Human blood: anti-coagulant sodium or lithium heparin. • Stock solution: • 100 μM solution of study compound in 50 mM Phosphate buffer pH 7.4. • 950 μL plasma (or blood) was pre-incubated for 5 min at 37° C. 50 μL of compound stock solution was added. Final compound concentration=5 μM. Vortex and transfer 1504, plasma (or blood) into an Eppendorf for each time point. The time points […] were carried out in duplicate for each species.
(§4) After incubation 150 μL, plasma (or blood) was extracted with 600 μL, Acetonitrile containing with 1% TFA. Then, vortexed and centrifuged 10 min at 14600 rpm. 200 μL supernatant was dried under N2. The sample was reconstituted in 200 μL of H2O/CH3CN 98/2+0.1% FA+50 ng/ml Labetalol and analyzed using the analytical system used in solubility and stability studies.
(§5) For determination of the amount of the remaining peptide, the peak areas of the target compound at t0 and each time point […] were compared, resulting in “% remaining peptide”, following the equation: % remaining peptide=[(peak area peptide time)×100]/peak area peptide t0. The stability is expressed as “% remaining peptide”.

A short description of data set [2]: Stability testing of peptides in rat plasma or blood. Type of data set: in vitro ADME. The note with it: 37° C.; for Rat plasma stability % remaining T = 0: rat plasma or blood, T = 0 (reference), 5 μM. The method, then:
as §1, §2, §3, §4, §5

Data set [3] is described as follows: Pharmacokinetic (PK) determination after i.v. or s.c. administration to rats. It is filed as in vivo, Sprague Dawley rats. The note with it: Sprague Dawley, Rat PK; for C0 / half-life: iv, 1 mg/kg i.v.; for C0: extrapolated plasma concentration at t=0, read-out: C0; for half-life / Cmax / Tmax / bioavailability: plasma; for half-life: read-out: T½ (converted); for Cmax / Tmax: sc, 3 mg/kg s.c.; for bioavailability: subcutaneous, 3 mg/kg s.c. vs 1 mg/kg i.v., dose-corrected AUC ratio. The procedure, abridged: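 Non-compartmental analysis of plasma LC/MS data (protein precipitation, BLQ taken as zero) gave T½, C0 (i.v.), Cmax/Tmax (s.c.) and F% from dose-corrected AUCs. Dosing: 3 mg/kg s.c. or 1 mg/kg i.v. in PBS to Sprague Dawley rats, purity- and salt-corrected.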

The mark [4] stands for this setting: human plasma, read-out: Human Plasma stability % remaining 1 h.
The mark [5] stands for this setting: human plasma, read-out: Human Plasma stability % remaining 4 h.
[6] abbreviates: rat plasma, read-out: Rat plasma stability % remaining 1 h.
The mark [7] stands for this setting: rat plasma, read-out: Rat plasma stability % remaining 4 h.

The EC50 is the concentration giving half of the maximal effect. What is called Emax is the size of the effect at its maximum, as opposed to the concentration needed. One may read the Cmax as the highest concentration seen after dosing. Usually Tmax stands for the time at which the peak concentration occurs. One may read the bioavailability as dose-corrected exposure relative to a reference, in per cent. For `CCCCCCCCCCCCCCCC(=O)N[C@@H](CCC(=O)N[C@@H](CCC(=O)N[C@@H](CCC(=O)NCCCC[C@H](NC(=O)[C@H](CCCCN)NC(=O)[C@H](CCCNC(=N)N)NC(=O)C(C)(C)NC(=O)[C@H](CO)NC(=O)[C@H](Cc1c[nH]c2ccccc12)NC(=O)[C@@H](NC(=O)[C@H](CO)NC(=O)[C@H](CCSC)NC(=O)CNC(=O)[C@H](CCC(=O)O)NC(=O)C(C)(C)NC(=O)C(C)(C)NC(=O)[C@@H](NC(=O)[C@H](CCC(N)=O)NC(=O)[C@H](C)NC(=O)[C@H](CCCNC(=N)N)NC(=O)[C@@H](NC(=O)[C@H](CCCCN)NC(=O)[C@H](CCC(=O)O)NC(=O)[C@H](CCCNC(=N)N)NC(=O)CNC(=O)[C@H](CCC(=O)O)NC(=O)[C@H](CC(C)C)NC(C)=O)C(C)C)[C@@H](C)CC)[C@@H](C)O)C(N)=O)C(=O)O)C(=O)O)C(=O)O` [compound 7] (Ac-LEGREKVRAQI[Aib][Aib]EGMSTWS[Aib]RKK([γGlu-γGlu-γGlu-Palmitoyl])-NH2), at RXFP1, the EC50 stood at 17.6 nM and the Emax was 87%. Also, the “Human Plasma stability % remaining T = 0” value in data set [1] was found to be 100%. The share remaining at 1 h, 5 µM in data set [1] (whole blood, human blood, read-out: Human stability in blood % remaining 1 h) is 110%. Moreover, the share remaining at 4 h, 5 µM in data set [1] (whole blood, human blood, read-out: Human stability in blood % remaining 4 h) is 91%. In addition, the “Rat plasma stability % remaining T = 0” value in data set [2] came out at 100%. The fraction remaining at 1 h, 5 µM in data set [2] (whole blood, rat blood, read-out: Rat stability in blood % remaining 1 h) came to 110%. In data set [2] (whole blood, rat blood, read-out: Rat stability in blood % remaining 4 h), the share remaining at 4 h, 5 µM was 93%. In addition, in data set [3], the C0 was 4770 nM, the half-life is 4.3 h, the Cmax was found to be 1700 nM and the Tmax amounted to 6 h. The bioavailability in data set [3] turned out to be 53%.

For `CCCCCCCCCCCCCCCCCC(=O)N[C@@H](CCC(=O)N[C@@H](CCC(=O)N[C@@H](CCC(=O)NCCCC[C@H](NC(=O)COCC(=O)NCCCOCCOCCOCCCNC(=O)COCC(=O)NCCCOCCOCCOCCCNC(=O)[C@H](CCCCNC(C)=O)NC(=O)[C@H](CCCCN)NC(=O)[C@H](CCCNC(=N)N)NC(=O)C(C)(C)NC(=O)[C@H](CO)NC(=O)[C@H](Cc1c[nH]c2ccccc12)NC(=O)[C@@H](NC(=O)[C@H](CO)NC(=O)[C@H](CCCC)NC(=O)CNC(=O)[C@H](CCC(=O)O)NC(=O)C(C)(C)NC(=O)C(C)(C)NC(=O)[C@@H](NC(=O)[C@H](CCCCNC(C)=O)NC(=O)[C@H](C)NC(=O)[C@H](CCCNC(=N)N)NC(=O)[C@@H](NC(=O)[C@H](CCCCN)NC(=O)[C@H](CCC(=O)O)NC(=O)[C@H](CCCNC(=N)N)NC(=O)CNC(=O)[C@H](CCC(=O)O)NC(=O)[C@H](CC(C)C)NC(C)=O)C(C)C)[C@@H](C)CC)[C@@H](C)O)C(N)=O)C(=O)O)C(=O)O)C(=O)O` [compound 19] (Ac-LEGREKVRAK(Ac)I[Aib][Aib]EG[Nle]STWS[Aib]RKK(Ac)-X1), at RXFP1, the EC50 is 0.15 nM. Also, the Emax on RXFP1 stood at 96%. In addition, in data set [1], the “Human Plasma stability % remaining T = 0” value was determined as 100%. The results for the share remaining at 1 h, 5 µM in data set [1] (setting [4]) and in data set [2] (setting [6]) were 86% and 99%, respectively. Further, the fraction remaining at 4 h, 5 µM in data set [1] (setting [5]) was 90%; in data set [2] (setting [7]) it was 89%. Besides, the “Rat plasma stability % remaining T = 0” value in data set [2] came out at 100%.

On to `CCCCCCCCCCCCCCCC(=O)N[C@@H](CCC(=O)NCCCC[C@H](NC(=O)CC[C@H](NC(=O)CC[C@H](NC(=O)CC[C@H](NC(=O)COCCOCCNC(=O)COCCOCCNC(=O)COCCOCCNC(=O)[C@H](CCCCN)NC(=O)[C@H](CCCCN)NC(=O)[C@H](CCCNC(=N)N)NC(=O)C(C)(C)NC(=O)[C@H](CO)NC(=O)[C@H](Cc1c[nH]c2ccccc12)NC(=O)[C@@H](NC(=O)[C@H](CO)NC(=O)[C@H](CCCC)NC(=O)CNC(=O)[C@H](CCC(=O)O)NC(=O)C(C)(C)NC(=O)C(C)(C)NC(=O)[C@@H](NC(=O)[C@H](CCC(N)=O)NC(=O)[C@H](C)NC(=O)[C@H](CCCNC(=N)N)NC(=O)[C@@H](NC(=O)[C@H](CCCCN)NC(=O)[C@H](CCC(=O)O)NC(=O)[C@H](CCCNC(=N)N)NC(=O)CNC(=O)[C@H](CCC(=O)O)NC(=O)[C@H](CC(C)C)NC(C)=O)C(C)C)[C@@H](C)CC)[C@@H](C)O)C(=O)O)C(=O)O)C(=O)O)C(N)=O)C(=O)O` [compound 110] (Ac-LEGREKVRAQI[Aib][Aib]EG[Nle]STWS[Aib]RKK[AEEA][AEEA][AEEA][γGlu][γGlu][γGlu]K([γGlu-Palmitoyl])-NH2), for which the EC50 at RXFP1 is 0.17 nM. Moreover, the Emax on RXFP1 stood at 80%. Besides, the “Human Plasma stability % remaining T = 0” value in data set [1] amounted to 100%. The results for the fraction remaining at 1 h, 5 µM in data set [1] (setting [4]) and in data set [2] (setting [6]) were 101% and 96%, respectively. Also, the share remaining at 4 h, 5 µM in data set [1] (setting [5]) was determined as 114%; in data set [2] (setting [7]) it was 98%. The “Rat plasma stability % remaining T = 0” value in data set [2] turned out to be 100%.

With `CCCCCCCCCCCCCCCC(=O)N[C@@H](CCC(=O)N[C@@H](CCC(=O)N[C@@H](CCC(=O)N[C@@H](CCC(=O)NCCCC[C@H](NC(=O)COCCOCCNC(=O)COCCOCCNC(=O)COCCOCCNC(=O)[C@H](CCCCNC(C)=O)NC(=O)[C@H](CCCCN)NC(=O)[C@H](CCCNC(=N)N)NC(=O)[C@](C)(CCCCN)NC(=O)[C@H](CO)NC(=O)[C@H](Cc1c[nH]c2ccccc12)NC(=O)[C@@H](NC(=O)[C@H](CO)NC(=O)[C@H](CCCC)NC(=O)CNC(=O)[C@H](CCC(=O)O)NC(=O)C(C)(C)NC(=O)C(C)(C)NC(=O)[C@@H](NC(=O)[C@H](CCCCNC(C)=O)NC(=O)[C@H](C)NC(=O)[C@H](CCCNC(=N)N)NC(=O)[C@@H](NC(=O)[C@H](CCCCN)NC(=O)[C@H](CCC(=O)O)NC(=O)[C@H](CCCNC(=N)N)NC(=O)CNC(=O)[C@H](CCC(=O)O)NC(=O)[C@H](CC(C)C)NC(C)=O)C(C)C)[C@@H](C)CC)[C@@H](C)O)C(N)=O)C(=O)O)C(=O)O)C(=O)O)C(=O)O` [compound 17] (Ac-LEGREKVRAK(Ac)I[Aib][Aib]EG[Nle]STWS[αMeK]RKK(Ac)[AEEA][AEEA][AEEA]K([γGlu-γGlu-γGlu-γGlu-Palmitoyl])-NH2), on RXFP1, the EC50 is 0.17 nM and the Emax stood at 95%. For the same molecule, in data set [3], the C0 was 3500 nM, the half-life is 5.8 h, the Cmax was found to be 2400 nM and the Tmax was determined as 8 h. In addition, the bioavailability in data set [3] was 73%.
